Laboratory results reported in PubChem BioAssay (NCI).
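Grown in 96-well plates, cells were treated for 48 hours with each compound at five concentrations. Insufficient inhibition: endpoint recorded as highest concentration tested. GI50 is the concentration that inhibits growth by half. TGI: total growth inhibition.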

Assays:
Experiment in all cases: NCI tumour cell line growth inhibition, 48 h
[1] = system: NCI-H226 lung
[2] = system: RPMI-8226 leukemia
[3] = system: SK-MEL-28 melanoma
[4] = system: SNB-19 CNS
[5] = system: M14 melanoma
[6] = system: LOX IMVI melanoma
[7] = system: 786-0 renal
[8] = system: SF-539 CNS
[9] = system: UACC-62 melanoma
[10] = system: SK-OV-3 ovarian
[11] = system: SF-295 CNS
[12] = system: SN12C renal
[13] = system: KM12 colon
[14] = system: SF-268 CNS
[15] = system: HCT-116 colon
[16] = system: DU-145 prostate
[17] = system: TK-10 renal
[18] = system: MDA-MB-435
[19] = system: MOLT-4 leukemia
[20] = system: OVCAR-5 ovarian
[21] = system: SK-MEL-2 melanoma
[22] = system: SNB-75 CNS
[23] = system: SK-MEL-5 melanoma
[24] = system: NCI-H460 lung
[25] = system: EKVX NSCLC
[26] = system: MDA-MB-231 breast
[27] = system: PC-3 prostate
[28] = system: A549 NSCLC
[29] = system: COLO 205 colon
[30] = system: A498 renal
[31] = system: ACHN renal
[32] = system: U251 CNS
[33] = system: SR leukemia
[34] = system: HL-60(TB) leukemia
[35] = system: OVCAR-3 ovarian
[36] = system: OVCAR-4 ovarian
[37] = system: HS 578T breast
[38] = system: RXF 393 renal
[39] = system: BT-549 breast
[40] = system: UO-31 renal
[41] = system: HT29 colon
[42] = system: MALME-3M melanoma
[43] = system: NCI-H23 lung
[44] = system: CAKI-1 renal
[45] = system: HCC-2998 colon
[46] = system: OVCAR-8 ovarian
[47] = system: NCI/ADR-RES ovarian
[48] = system: HOP-92 NSCLC
[49] = system: T-47D breast
[50] = system: UACC-257 melanoma
[51] = system: NCI-H522 lung
[52] = system: SW-620 colon
[53] = system: HOP-62 NSCLC
[54] = system: K-562 leukemia
[55] = system: MCF7 breast
[56] = system: HCT-15 colon
[57] = system: IGROV1 ovarian

`COc1cc(/C=C/c2cc(/C=C/c3ccc(O)c(OC)c3)n(C(=O)Nc3ccc(C)cc3)n2)ccc1O` gave a GI50 [1] of 1190 nM, a TGI [1] of 4820 nM and a GI50 [2] of 261 nM. It also gave a TGI [2] of 1340 nM, a GI50 [3] of 797 nM and a TGI [3] of 6870 nM. For the same compound, the GI50 [4] was 873 nM, the TGI [4] was 9110 nM and the GI50 [5] was 287 nM. For the same compound, the TGI [5] was 1050 nM, the GI50 [6] was 501 nM and the TGI [6] was 2620 nM. It also gave a GI50 [7] of 412 nM, a TGI [7] of 1810 nM and a GI50 [8] of 442 nM. For the same compound, the TGI [8] was 2470 nM, the GI50 [9] was 519 nM and the TGI [9] was 2610 nM. For the same compound, the GI50 [10] was 451 nM, the TGI [10] was 1790 nM and the GI50 [11] was 1710 nM. For the same compound, the TGI [11] was 6340 nM, the GI50 [12] was 408 nM and the TGI [12] was over 29900 nM. It also gave a GI50 [13] of 345 nM, a TGI [13] of 3180 nM and a GI50 [14] of 628 nM. It also gave a TGI [14] of 7440 nM, a GI50 [15] of 296 nM and a TGI [15] of 1530 nM. The GI50 [16] was 448 nM, the TGI [16] was 2320 nM and the GI50 [17] was 874 nM. It also gave a TGI [17] of 5810 nM, a GI50 [18] of 115 nM and a TGI [18] of 391 nM. The GI50 [19] was 291 nM, the TGI [19] was 1060 nM and the GI50 [20] was 1890 nM. For the same compound, the TGI [20] was 5890 nM, the GI50 [21] was 681 nM and the TGI [21] was 3970 nM. It also gave a GI50 [22] of 321 nM, a TGI [22] of 1360 nM and a GI50 [23] of 306 nM. It also gave a TGI [23] of 1210 nM, a GI50 [24] of 339 nM and a TGI [24] of 1860 nM. The GI50 [25] was 992 nM, the TGI [25] was 5020 nM and the GI50 [26] was 1460 nM. For the same compound, the TGI [26] was 23000 nM, the GI50 [27] was 404 nM and the TGI [27] was 2530 nM. It also gave a GI50 [28] of 419 nM, a TGI [28] of 4600 nM and a GI50 [29] of 1910 nM. For the same compound, the TGI [29] was 3510 nM, the GI50 [30] was 1430 nM and the TGI [30] was 4870 nM. For the same compound, the GI50 [31] was 396 nM, the TGI [31] was 7420 nM and the GI50 [32] was 422 nM. For the same compound, the TGI [32] was 3480 nM, the GI50 [33] was 26.8 nM and the TGI [33] was 150 nM. It also gave a GI50 [34] of 261 nM, a TGI [34] of 657 nM and a GI50 [35] of 417 nM. For the same compound, the TGI [35] was 1990 nM, the GI50 [36] was 697 nM and the TGI [36] was 5950 nM. For the same compound, the GI50 [37] was 278 nM, the TGI [37] was 689 nM and the GI50 [38] was 381 nM. For the same compound, the TGI [38] was 1410 nM, the GI50 [39] was 306 nM and the TGI [39] was 2340 nM. For the same compound, the GI50 [40] was 272 nM, the TGI [40] was 1720 nM and the GI50 [41] was 1930 nM. The TGI [41] was 5190 nM, the GI50 [42] was 924 nM and the TGI [42] was 3570 nM. For the same compound, the GI50 [43] was 586 nM, the TGI [43] was 3990 nM and the GI50 [44] was 311 nM. It also gave a TGI [44] of 6950 nM, a GI50 [45] of 2120 nM and a TGI [45] of 9460 nM. It also gave a GI50 [46] of 465 nM, a TGI [46] of 2590 nM and a GI50 [47] of 429 nM. For the same compound, the TGI [47] was over 100000 nM, the GI50 [48] was 682 nM and the TGI [48] was 4180 nM. For the same compound, the GI50 [49] was 1140 nM, the TGI [49] was 3330 nM and the GI50 [50] was 1060 nM. The TGI [50] was 4950 nM, the GI50 [51] was 235 nM and the TGI [51] was 909 nM. It also gave a GI50 [52] of 465 nM, a TGI [52] of 3440 nM and a GI50 [53] of 759 nM. It also gave a TGI [53] of 2500 nM, a GI50 [54] of 359 nM and a GI50 [55] of 400 nM. For the same compound, the TGI [55] was 2970 nM, the GI50 [56] was 384 nM and the TGI [56] was 5270 nM. The GI50 [57] was 667 nM and the TGI [57] was 3940 nM.

In the case of `COc1cc2c(cc1OCCCOc1cc3c(cc1OC)C(=O)N1CCC[C@H]1C(=O)N3)N=C[C@@H]1CCCN1C2=O`, the TGI [1] is reported as 35500 nM, the TGI [2] is reported as 21200 nM and the TGI [3] is reported as 46800 nM. For the same compound, the TGI [4] was over 100000 nM, the TGI [5] was 55400 nM and the TGI [6] was 18700 nM. The TGI [7] was over 100000 nM, the TGI [9] was 19500 nM and the TGI [11] was 46500 nM. The TGI [12] was 61500 nM, the TGI [13] was 67000 nM and the TGI [14] was over 100000 nM. It also gave a TGI [15] of over 100000 nM, a TGI [16] of over 100000 nM and a TGI [17] of 84500 nM. The TGI [18] was 31500 nM, the TGI [19] was 1410 nM and the TGI [20] was 59600 nM. For the same compound, the TGI [21] was 69600 nM, the TGI [22] was 36000 nM and the TGI [23] was 26800 nM. The TGI [24] was 70400 nM, the TGI [25] was 46400 nM and the TGI [26] was 44000 nM. It also gave a TGI [27] of 57000 nM, a TGI [28] of 57400 nM and a TGI [29] of 12100 nM. The TGI [30] was 37900 nM, the TGI [31] was 38500 nM and the TGI [32] was 38800 nM. The TGI [33] was 3710 nM, the TGI [34] was 42300 nM and the TGI [35] was 54000 nM. The TGI [36] was 42400 nM, the TGI [37] was 84400 nM and the TGI [38] was 31000 nM. The TGI [39] was 83300 nM, the TGI [40] was 40500 nM and the TGI [41] was 35400 nM. The TGI [42] was 29800 nM, the TGI [43] was 57400 nM and the TGI [44] was 88400 nM. For the same compound, the TGI [45] was 31000 nM, the TGI [46] was over 100000 nM and the TGI [47] was over 100000 nM. For the same compound, the TGI [49] was 77300 nM, the TGI [50] was 50000 nM and the TGI [51] was 6340 nM. It also gave a TGI [52] of 56500 nM, a TGI [53] of over 100000 nM and a TGI [54] of 27300 nM. The TGI [55] was 27300 nM, the TGI [56] was over 100000 nM and the TGI [57] was 33400 nM.
